Patent US20260028337A1, “COMPOUND FOR INHIBITING IRAK4 ACTIVITY AND USE THEREOF” (SHENZHEN ZHONGGE BIOLOGICAL TECHNOLOGY CO., LTD., priority 2022, published 2026)
Structures can show the parent of a compound that is named as a salt.

Molecular target: IRAK4 kinase (Homo sapiens (Human), UniProt Q9NWZ3)
Test: IRAK4 Kinase Inhibition Assay (Cisbio HTRF KinEASE-STK S1 kit)
Format: biochemical
Settings: IRAK4 kinase protein 10 nM, ATP 200 μM, STK Substrate 1-biotin 1 μM, 37° C. 2 h, read-out: IC50 (nM), IRAK4 kinase inhibitory activity
Experimental: Test Example 1. IRAK4 Kinase Inhibition Assay
In this assay, Cisbio HTRF KinEASE-STK SI kit (62S 1 PEB) was used, in which assay/detection buffer, STK Substrate 1-biotin, Streptavidin-XL665, STK Antibody-Cryptate were contained.
After adding compound/DMSO to a 384-well plate (PerkinElmer 6008280) using Echo 665, 5 μL of 2-fold reaction concentration of IRAK4 kinase protein (final concentration: 10 nM) dissolved with assay buffer [1 volume of 5× kinase buffer+20 mM magnesium chloride (Sigma) solution+1 mM DTT (Alfa Aesar) solution+4 volumes deionized water] was added, followed by sealing the shallow well plate, shaking and then centrifuging at 1000 rpm for 1 min, and incubating at room temperature for 5 min; then 5 μL of 2-fold reaction concentration of a 1:1 mixture of STK Substrate 1-biotin (final concentration: 1 μM) and ATP (Sigma A1852) (final concentration: 200 μM) formulated with assay buffer was added, followed by sealing the shallow well plate, shaking and then centrifuging at 1000 rpm for 1 min, and incubating at 37° C. for 2 h, and then 10 μL of a 1:1 mixture of Streptavidin-XL665 (final concentration: 62.5 nM) and STK-antibody-cryptate dissolved with detection buffer was added, followed by sealing the shallow well plate, shaking and then centrifuging at 1000 rpm for 1 min, and incubating at room temperature for 1 h, and thereafter reading the value at the wavelength of 620 nm/665 nm using a microplate reader. The data were analyzed using Prism 9.3 software, and the IC50 value of IRAK4 kinase inhibition was fitted using a four parameter Logistic equation.

Chain of IRAK4 kinase (Q9NWZ3 whole entry): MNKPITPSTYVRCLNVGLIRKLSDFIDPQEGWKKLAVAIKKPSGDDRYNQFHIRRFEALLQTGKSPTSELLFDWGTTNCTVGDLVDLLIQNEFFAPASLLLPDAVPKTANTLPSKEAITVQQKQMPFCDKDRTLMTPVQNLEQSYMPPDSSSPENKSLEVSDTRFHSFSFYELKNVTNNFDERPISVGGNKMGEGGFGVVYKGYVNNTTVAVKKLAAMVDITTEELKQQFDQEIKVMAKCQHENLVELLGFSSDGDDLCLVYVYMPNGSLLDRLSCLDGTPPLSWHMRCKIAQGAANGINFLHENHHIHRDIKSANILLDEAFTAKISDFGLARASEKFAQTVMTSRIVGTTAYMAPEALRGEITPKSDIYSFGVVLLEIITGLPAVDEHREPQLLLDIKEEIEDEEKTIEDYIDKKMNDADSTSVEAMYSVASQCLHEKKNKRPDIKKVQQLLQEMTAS

SMILES | IC50
O=S1(=O)CCN(c2ccn3ncc(-c4cn(-c5cn([C@H]6CC[C@H](CO)CC6)nc5C(F)F)nn4)c3n2)CC1 [Compound 91A, 4-(3-(1-(3-(difluoromethyl)-1-((1r,4r)-4-(methylol)cyclohexyl)-1H-pyrazol-4-yl)-1H-1,2,3-triazol-4-yl)pyrazolo[1,5-a]pyrimidin-5-yl)thiomorpholine 1,1-dioxide] | 100 to 1000 nM
CC(C)(O)CCNc1ccn2ncc(-c3cn(-c4cn([C@H]5CC[C@H](CO)CC5)nc4C(F)F)nn3)c2n1 [Compound 92A, 4-((3-(1-(3-(difluoromethyl)-1-((1r,4r)-4-(methylol)cyclohexyl)-1H-pyrazol-4-yl)-1H-1,2,3-triazol-4-yl]pyrazolo[1,5-a]pyrimidin-5-yl)amino)-2-methylbutan-2-ol] | < 100 nM
CC1(O)CCN(c2ccn3ncc(-c4cn(-c5cn([C@H]6CC[C@H](CO)CC6)nc5C(F)F)nn4)c3n2)CC1 [Compound 93A, 1-(3-(1-(3-difluoromethyl)-1-((1r,4r)-4-(methylol)cyclohexyl)-1H-pyrazol-4-yl)-1H-1,2,3-triazol-4-ylpyrazolo[1,5-a]pyrimidin-5-yl)-4-methylpiperidin-4-ol] | < 100 nM
OC[C@H]1CC[C@H](n2cc(-n3cc(-c4cnn5ccc(NCC6CC6)nc45)nn3)c(C(F)F)n2)CC1 [Compound 94A, ((1r,4r)-4-(4-(4-(5-((cyclopropylmethyl)amino)pyrazolo[1,5-a]pyrimidin-3-yl)-1H-1,2,3-triazol-1-yl)-3-(difluoromethyl)-1H-pyrazol-1-yl)cyclohexyl)methanol] | < 100 nM
CN1CCN(c2ccn3ncc(-c4cn(-c5cn([C@H]6CC[C@H](CO)CC6)nc5C(F)F)nn4)c3n2)CC1 [Compound 95A, (1R,4R)-4-(3-difluoromethyl)-4-(4-(5-(4-methylpiperazin-1-yl)pyrazolo[1,5-a]pyrimidin-3-yl)-1H-1,2,3-triazol-1-yl)-1H-pyrazol-1-yl)cyclohexylmethanol formate] | 100 to 1000 nM
OC[C@H]1CC[C@H](n2cc(-n3cc(-c4cnn5ccc(N6CC(O)C6)nc45)nn3)c(C(F)F)n2)CC1 [Compound 96A, 1-(3-(1-(3-difluoromethyl)-1-((1r,4r)-4-(methylol)cyclohexyl)-1H-pyrazol-4-yl)-1H-1,2,3-triazol-4-ylpyrazolo[1,5-a]pyrimidin-5-yl)azetidin-3-ol] | 100 to 1000 nM
OC[C@H]1CC[C@H](n2cc(-n3cc(-c4cnn5ccc(N6CCC(O)CC6)nc45)nn3)c(C(F)F)n2)CC1 [Compound 97A] | < 100 nM
OC[C@H]1CC[C@H](n2cc(-n3cc(-c4cnn5ccc(N6CCCOCC6)nc45)nn3)c(C(F)F)n2)CC1 [Compound 98A] | < 100 nM
OCC1CCC(n2cc(-n3cc(-c4cnn5ccc(N6CC7CC[C@H](C6)O7)nc45)nn3)c(C(F)F)n2)CC1 (stereo partly shown) [Compound 99A, ((1r,4r)-4-(4-(4-(5-(8-oxa-3-azabicyclo[3.2.1]oct-3-yl)pyrazolo[1,5-a]pyrimidin-3-yl)-1H-1,2,3-triazol-1-yl)-3-(difluoromethyl)-1H-pyrazol 1-yl)cyclohexyl)methanol] | 100 to 1000 nM
OC[C@H]1CC[C@H](n2cc(-n3cc(-c4cnn5ccc(N6CCCC(O)C6)nc45)nn3)c(C(F)F)n2)CC1 (stereo partly shown) [Compound 100A] | < 100 nM
OC[C@H]1CC[C@H](n2cc(-n3cc(-c4cnn5ccc(N6CCC(O)C6)nc45)nn3)c(C(F)F)n2)CC1 (stereo partly shown) [Compound 101A] | 100 to 1000 nM
CN(C)C1CCN(c2ccn3ncc(-c4cn(-c5cn(C6CCC(CO)CC6)nc5C(F)F)nn4)c3n2)CC1 (stereo not shown) [Compound 102A, ((1r, 4r)-4-(3-(difluoromethyl)-4-(4-(5-(4-(dimethylamino)piperidin-1-yl)pyrazolo[1,5-a]pyrimidin-3-yl)-1H-1,2,3-triazol-1-yl)-1H-pyrazol-1-ylcyclohexyl)methanol] | 100 to 1000 nM
N[C@H]1CCCN(c2ccn3ncc(-c4cn(-c5cn(C6CCC(CO)CC6)nc5C(F)F)nn4)c3n2)C1 (stereo partly drawn) [Compound 103A, ((1r, 4r)-4-(4-(4-(5-((S)-3-aminopiperidin-1-yl)pyrazolo[1,5-a]pyrimidin-3-yl)-1H-1,2,3-triazol-1-yl)-3-(difluoromethyl)-1H-pyrazol-1-yl]cyclohexyl) methanol] | < 100 nM
OC[C@H]1CC[C@H](n2cc(-n3cc(-c4cnn5ccc(N6CCOCC6)nc45)nn3)c(C(F)F)n2)CC1 [Compound 104A, ((1r,4r)-4-(3-(difluoromethyl)-4-(4-(5-morpholinyl-pyrazolo[1,5-a]pyrimidin-3-yl)-1H-1,2,3-triazol-1-yl)-1H-pyrazol-1-yl]cyclohexyl)methanol] | < 100 nM
OCC1CCC(n2cc(-n3cc(-c4cnn5ccc(N6C[C@H]7C[C@@H]6CO7)nc45)nn3)c(C(F)F)n2)CC1 (stereo partly drawn) [Compound 105A, ((1R,4r)-4-(4-(4-(5-((1R,4r)-2-oxa-5-azabicyclo[2.2.1]heptan-5-yl)pyrazolo[1,5-a]pyrimidin-3-yl)-1H-1,2,3-triazol-1-yl)-3-(difluoromethyl)-1H-pyrazol-1-yl)cyclohexyl)methanol] | 100 to 1000 nM

Continued, values first:

IC50 | SMILES
< 100 nM | N[C@@H]1CCCN(c2ccn3ncc(-c4cn(-c5cn(C6CCC(CO)CC6)nc5C(F)F)nn4)c3n2)C1 (stereo partly shown) [Compound 106A]
< 100 nM | OCC1CCC(n2cc(-n3cc(-c4cnn5ccc(N[C@H]6CCCC[C@H]6O)nc45)nn3)c(C(F)F)n2)CC1 (stereo partly drawn) [Compound 107A, (1R,2S)-2-((3-(1-(3-(difluoromethyl)-1-((1R,4S)-4-(methylol)cyclohexyl)-1H-pyrazol-4-yl)-1H-1,2,3-triazol-4-yl]pyrazolo[1,5-a]pyrimidin-5-yl)amino)cyclohexan-1-ol]
< 100 nM | NC1CN(c2ccn3ncc(-c4cn(-c5cn([C@H]6CC[C@H](CO)CC6)nc5C(F)F)nn4)c3n2)CC(F)(F)C1 (stereo partly shown) [Compound 108A]
< 100 nM | C[C@H]1CN(c2ccn3ncc(-c4cn(-c5cn(C6CCC(CO)CC6)nc5C(F)F)nn4)c3n2)C[C@H](C)O1 (stereo partly shown) [Compound 109A]
< 100 nM | OC[C@H]1CC[C@H](n2cc(-n3cc(-c4cnn5ccc(N[C@@H]6CCCC[C@@H]6O)nc45)nn3)c(C(F)F)n2)CC1 [Compound 111A, (1S,2R)-2-((3-(1-(3-(difluoromethyl)-1-((1r,4R)-4-(methylol)cyclohexyl)-1H-pyrazol-4-yl)-1H-1,2,3-triazol-4-yl]pyrazolo[1,5-a]pyrimidin-5-yl)amino)cyclohexan-1-ol]
< 100 nM | OCC1CCC(n2cc(-n3cc(-c4cnn5ccc(N6CCC[C@H](O)C6)nc45)nn3)c(C(F)F)n2)CC1 (stereo partly drawn) [Compound 112A, (S)-1-(3-(1-(3-(difluoromethyl)-1-((1r,4r)-4-(methylol)cyclohexyl)-1H-pyrazol-4-yl)-1H-1,2,3-triazol-4-yl]pyrazolo[1,5-a]pyrimidin-5-yl)piperidin-3-ol]
< 100 nM | OCC1CCC(n2cc(-n3cc(-c4cnn5ccc(N6CCC[C@@H](O)C6)nc45)nn3)c(C(F)F)n2)CC1 (stereo partly drawn) [Compound 113A, (R)-1-(3-(1-(3-(difluoromethyl)-1-((1r,4r)-4-(methylol)cyclohexyl)-1H-pyrazol-4-yl)-1H-1,2,3-triazol-4-yl]pyrazolo[1,5-a]pyrimidin-3-yl) piperidin-3-ol]
